Experimental data as given in US9956201B2, “Compositions comprising bioreversible derivatives of hydroxy N-substituted-2-aminotetralins, and related dosage forms” (Spriaso LLC, priority 2014, dated 2018).

Key:
[1] = Apparent lipophilicity log D at pH 7.4 (octanol / pH 7.4 surfactant free buffer); assay type: physicochemical
Source text: The log DpH=7.4 value is a log of the distribution efficiency (ratio of concentrations of the disclosed bioreversible derivatives in octanol solvent to a pH 7.4 aqueous surfactant free buffer media).
TABLE 5 summarized the intrinsic lipophilicity and apparent lipophilicity of hydroxy N-substituted-2-aminotetralins in comparison with those of some examples of the corresponding bioreversible derivatives according to the disclosure.

[2] = cited from earlier work
[3] = Pharmacokinetics of dosage forms at varied doses of Composition 1c-10 containing caprate ester A10; assay type: in vivo; settings: serum rotigotine, human, oral, Composition 1c-10 with A10
Procedure: Serial blood samples were drawn at predetermined time (e.g., t=0, 12, 24, etc.) and analyzed for rotigotine concentration using a validated HPLC-MS/MS analytical method. The rotigotine Cmax, ratio of rotiogtine peak levels to rotigotine equivalent, Cmax/mg, rotiogotine Cavgt1-t2, rotigotine steady state maximum concentration, Css-max, rotigotine AUCt1-t2 and ratio of rotigotine area under the curve to rotigotine equivalent dose in mg, AUCt1-t2/mg, were calculated in the serum of the subjects. Pharmacokinetic and statistical analyses were performed on the data obtained from the subjects, the pharmacokinetic parameters were defined as follows:
[…] Serial blood samples were drawn for the human subjects at predetermined time (e.g., t=0, 12, 24, etc.) and analyzed to determine pharmacokinetic parameters in the serum of the subjects.

[4] = no method; cited from earlier work
[5] = dose 0.1 mg as rotigotine equivalent
[6] = dose 500 mg as rotigotine equivalent

Question: Which “Apparent Lipophilicity logD7.4” value [1] does the source give for CCCN(CCc1cccs1)[C@H]1CCc2c(O)cccc2C1 [Compound A1, (S)-6-[propyl(2-thiophen-2-ylethyl)amino]-5,6,7,8-tetrahydronaphthalen-1-ol] here?
Answer: 1-1.9

Question: And the “activity upon oral administration” value ([2]; preclinical data)?
Answer: zero to limited activity

Question: With CCCCCCCCCC(=O)Oc1cccc2c1CCC(N(CCC)CCc1cccs1)C2 (stereo not drawn) [Compound A10] as the compound, how does the “Mean AUC/mg” value [3, 5] read?
Answer: <1.25 × 10^−9 hr..^−1

Question: What about the “Mean Cmax/mg” value [3, 5] of the same compound?
Answer: <1e-10 mL⁻¹

Question: What about the “Mean AUC/mg” value [3, 6] of the same compound?
Answer: >188 × 10^−6 hr..^−1

Question: What about the “Mean Cmax/mg” value [3, 6] of the same compound?
Answer: >1.2e-05 mL⁻¹

Question: What about the “Apparent Lipophilicity logD7.4” value [1] of the same compound?
Answer: >4

Question: Which “Apparent Lipophilicity logD7.4” value [1] does the source give for CCCN[C@H]1CCc2c(O)cccc2C1 [Compound B1, (6S)-(−)-5-hydroxy-N-propyl-2-aminotetralin] here?
Answer: −0.5

Question: What about the pKa [4] of the same compound?
Answer: about 10.6

Question: For CCCCCCCCCCCCCCCC(=O)Oc1cccc2c1CCC(NCCC)C2 (stereo not drawn) [Compound B5], which “Apparent Lipophilicity logD7.4” value [1] is on record?
Answer: 6.5-7.5

Question: Which pKa [4] does the source give for CCCN(CCC)C1CCc2cccc(O)c2C1 (stereo not drawn) [Compound C1, 8-hydroxy-N,N-dipropyl-2-aminotetralin] here?
Answer: about 10.54

Question: Which pKa [4] does the source give for CCCN(CCC)C1CCc2ccc(O)cc2C1 (stereo not drawn) [Compound C2, 7-hydroxy-N,N-dipropyl-2-aminotetralin] here?
Answer: about 10.54

Question: With CCCN(CCC)C1CCc2c(O)cccc2C1 (stereo not drawn) [Compound C3, 5-hydroxy-N,N-dipropyl-2-aminotetralin] as the compound, how does the pKa [4] read?
Answer: about 10.5

Question: For CCCCCCCCCCCC(=O)Oc1cccc2c1CC(N(CCC)CCC)CC2 (stereo not drawn) [Compound C7, Laurate (C12) Ester of 8-OH-DPAT], which “Apparent Lipophilicity logD7.4” value [1] is on record?
Answer: 6.5-7.5

Question: With CCCN(CCc1cccs1)[C@H]1CCc2c(O)cccc2C1 [Compound N-0923] as the compound, how does the “bioavailability after oral administration” value ([2]; animal model) read?
Answer: about 0.5%
